How the values were obtained:
[1] = target: T1, EphA4-TAP (Homo sapiens, UniProt P54764); assay: Cellular Eph kinase tyrosine phosphorylation assay; format: cell-based; settings: SK-N-BE2 neuroblastoma cells, treatment 10 min. at 37 °C, Western blot anti-phosphotyrosine
T1 construct: The cDNAs encoding the complete ORF are obtained by RT-PCR; expressed in transfected cells; host or cells: SK-N-BE2 neuroblastoma cells (ATCC CRL-2271), retroviral transduction
Description: (§1) Following treatment, cells were lysed in a detergent-containing buffer and TAP-tagged Eph kinases were captured with IgG beads. Bound TAP-tagged proteins were analyzed by SDS-PAGE and Western blotting, utilizing either anti-phosphotyrosine or anti-TAP antibodies for detection.
(§2) Cells are plated in 6-well plates in growth medium (see above). […] This feature is exploited to monitor the effect of Eph kinase modulators. Test compounds are diluted (from a stock in DMSO) in serum-free medium and added to cells for indicated times. Cells are chilled on ice and washed with ice-cold PBS. They are then lysed in 300 μl lysis buffer (50 mM Tris-HCl, 1% NP-40, 0.05% SDS, 100 mM NaCl, 1.5 mM MgCl2, 2 mM EDTA, 5% glycerol, pH 7.6) for 20 min at 4 °C and cleared by centrifugation at 16,100×g in a table-top centrifuge for 20 min.
(§3) Lysates are subsequently incubated with 20 μl pre-washed rabbit IgG beads (Sigma) for 2 h with constant agitation at 4° C. Beads are finally washed with 1 ml of lysis buffer and immobilized protein complexes are eluted by boiling in 40 μl SDS sample buffer.

[2] = target: T2, EphB2-TAP (Homo sapiens, UniProt P29323); assay: Cellular Eph kinase tyrosine phosphorylation assay; format: cell-based; settings: SK-N-BE2 neuroblastoma cells, treatment 10 min. at 37 °C, Western blot anti-phosphotyrosine
T2 construct: The cDNAs encoding the complete ORF are obtained by RT-PCR; expressed in transfected cells; host or cells: SK-N-BE2 neuroblastoma cells (ATCC CRL-2271), retroviral transduction
T2 sequence (P29323 19-1055): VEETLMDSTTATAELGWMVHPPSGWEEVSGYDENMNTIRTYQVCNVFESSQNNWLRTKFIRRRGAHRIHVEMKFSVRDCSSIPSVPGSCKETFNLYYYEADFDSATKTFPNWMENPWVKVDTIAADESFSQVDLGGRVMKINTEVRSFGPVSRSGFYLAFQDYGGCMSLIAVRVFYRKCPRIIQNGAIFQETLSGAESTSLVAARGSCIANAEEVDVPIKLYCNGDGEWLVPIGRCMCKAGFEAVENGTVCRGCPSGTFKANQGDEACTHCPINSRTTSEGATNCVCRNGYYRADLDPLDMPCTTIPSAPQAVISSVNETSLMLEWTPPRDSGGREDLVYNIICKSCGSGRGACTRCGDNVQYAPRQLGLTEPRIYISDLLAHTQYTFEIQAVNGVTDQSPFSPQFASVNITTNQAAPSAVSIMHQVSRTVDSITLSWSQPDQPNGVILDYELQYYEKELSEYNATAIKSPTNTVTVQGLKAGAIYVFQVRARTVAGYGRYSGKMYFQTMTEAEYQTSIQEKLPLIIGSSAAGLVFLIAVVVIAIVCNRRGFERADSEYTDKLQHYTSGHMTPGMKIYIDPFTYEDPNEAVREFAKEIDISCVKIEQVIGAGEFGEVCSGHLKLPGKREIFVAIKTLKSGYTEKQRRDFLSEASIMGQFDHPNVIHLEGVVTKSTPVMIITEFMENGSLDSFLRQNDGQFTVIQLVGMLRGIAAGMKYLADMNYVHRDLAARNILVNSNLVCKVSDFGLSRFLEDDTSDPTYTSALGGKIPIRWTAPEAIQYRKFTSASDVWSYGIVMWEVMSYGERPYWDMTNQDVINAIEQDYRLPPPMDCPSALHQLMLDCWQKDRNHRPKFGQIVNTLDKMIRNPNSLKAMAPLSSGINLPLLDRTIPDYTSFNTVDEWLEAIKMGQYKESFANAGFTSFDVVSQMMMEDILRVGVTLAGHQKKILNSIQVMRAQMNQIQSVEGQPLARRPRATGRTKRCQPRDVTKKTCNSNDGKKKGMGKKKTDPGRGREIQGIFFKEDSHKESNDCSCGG
Description: as §1, §2, §3

[3] = tested on: TAP-tagged Eph kinases; assay: Autophosphorylation of TAP-tagged Eph kinases in cells; format: cell-based; settings: in cells (FIG. 2)
Description: Cells are plated in 6-well plates in growth medium (see above). To test potential modulators, preferably inhibitors, of Eph kinase tyrosine phosphorylation, cells are starved in serum-free medium for 4 h. Under these conditions, Eph-TAP kinase is partially constitutively phosphorylated-presumably through autophosphorylation that is commonly associated with over-expression of receptor tyrosine kinases. This feature is exploited to monitor the effect of Eph kinase modulators. Test compounds are diluted (from a stock in DMSO) in serum-free medium and added to cells for indicated times. Cells are chilled on ice and washed with ice-cold PBS. They are then lysed in 300 μl lysis buffer (50 mM Tris-HCl, 1% NP-40, 0.05% SDS, 100 mM NaCl, 1.5 mM MgCl2, 2 mM EDTA, 5% glycerol, pH 7.6) for 20 min at 4 °C and cleared by centrifugation at 16,100×g in a table-top centrifuge for 20 min.
as §3
Blot membranes are probed with monoclonal antibody 4G10 (Upstate Biotechnology) or with HRP-coupled PAP antibody (see above).

[4] = tested on: TAP-tagged Eph kinases; assay: Autophosphorylation of TAP-tagged Eph kinases in-vitro; format: biochemical; settings: data not shown
[5] = target: T3, EphA6 (Mus musculus, UniProt Q62413); assay: Chemical proteomics pull-down with immobilized compound, LC-MS/MS identification; settings: maximum in any chemical proteomics experiment
T3 sequence (Q62413 23-1035): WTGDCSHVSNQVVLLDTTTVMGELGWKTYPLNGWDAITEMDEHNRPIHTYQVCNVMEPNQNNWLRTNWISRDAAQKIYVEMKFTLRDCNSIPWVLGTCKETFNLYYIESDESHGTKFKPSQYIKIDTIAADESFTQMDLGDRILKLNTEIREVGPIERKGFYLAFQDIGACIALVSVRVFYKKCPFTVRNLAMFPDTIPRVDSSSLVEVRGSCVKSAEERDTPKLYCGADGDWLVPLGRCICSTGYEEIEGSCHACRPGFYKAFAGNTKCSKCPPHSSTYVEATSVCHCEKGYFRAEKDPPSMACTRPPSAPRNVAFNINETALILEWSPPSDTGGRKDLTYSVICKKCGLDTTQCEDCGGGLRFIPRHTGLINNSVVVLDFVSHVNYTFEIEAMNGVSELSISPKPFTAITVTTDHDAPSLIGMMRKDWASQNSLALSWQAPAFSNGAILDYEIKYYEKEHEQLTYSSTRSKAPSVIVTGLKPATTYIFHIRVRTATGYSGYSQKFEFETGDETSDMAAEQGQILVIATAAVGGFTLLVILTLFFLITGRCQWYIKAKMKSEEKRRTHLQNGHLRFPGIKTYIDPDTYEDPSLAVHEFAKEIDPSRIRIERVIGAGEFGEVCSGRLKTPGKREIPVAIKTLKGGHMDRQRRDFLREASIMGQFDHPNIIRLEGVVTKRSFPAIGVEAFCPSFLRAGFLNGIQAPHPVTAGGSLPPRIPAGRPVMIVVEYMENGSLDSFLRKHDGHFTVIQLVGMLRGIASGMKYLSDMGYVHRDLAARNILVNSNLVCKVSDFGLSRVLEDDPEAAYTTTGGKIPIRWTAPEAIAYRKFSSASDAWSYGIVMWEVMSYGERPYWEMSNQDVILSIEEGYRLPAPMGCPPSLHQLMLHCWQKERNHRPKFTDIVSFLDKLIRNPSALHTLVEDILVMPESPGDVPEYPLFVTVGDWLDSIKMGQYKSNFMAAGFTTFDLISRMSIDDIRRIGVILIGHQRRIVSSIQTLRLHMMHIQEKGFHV

T1 sequence (P54764 20-986): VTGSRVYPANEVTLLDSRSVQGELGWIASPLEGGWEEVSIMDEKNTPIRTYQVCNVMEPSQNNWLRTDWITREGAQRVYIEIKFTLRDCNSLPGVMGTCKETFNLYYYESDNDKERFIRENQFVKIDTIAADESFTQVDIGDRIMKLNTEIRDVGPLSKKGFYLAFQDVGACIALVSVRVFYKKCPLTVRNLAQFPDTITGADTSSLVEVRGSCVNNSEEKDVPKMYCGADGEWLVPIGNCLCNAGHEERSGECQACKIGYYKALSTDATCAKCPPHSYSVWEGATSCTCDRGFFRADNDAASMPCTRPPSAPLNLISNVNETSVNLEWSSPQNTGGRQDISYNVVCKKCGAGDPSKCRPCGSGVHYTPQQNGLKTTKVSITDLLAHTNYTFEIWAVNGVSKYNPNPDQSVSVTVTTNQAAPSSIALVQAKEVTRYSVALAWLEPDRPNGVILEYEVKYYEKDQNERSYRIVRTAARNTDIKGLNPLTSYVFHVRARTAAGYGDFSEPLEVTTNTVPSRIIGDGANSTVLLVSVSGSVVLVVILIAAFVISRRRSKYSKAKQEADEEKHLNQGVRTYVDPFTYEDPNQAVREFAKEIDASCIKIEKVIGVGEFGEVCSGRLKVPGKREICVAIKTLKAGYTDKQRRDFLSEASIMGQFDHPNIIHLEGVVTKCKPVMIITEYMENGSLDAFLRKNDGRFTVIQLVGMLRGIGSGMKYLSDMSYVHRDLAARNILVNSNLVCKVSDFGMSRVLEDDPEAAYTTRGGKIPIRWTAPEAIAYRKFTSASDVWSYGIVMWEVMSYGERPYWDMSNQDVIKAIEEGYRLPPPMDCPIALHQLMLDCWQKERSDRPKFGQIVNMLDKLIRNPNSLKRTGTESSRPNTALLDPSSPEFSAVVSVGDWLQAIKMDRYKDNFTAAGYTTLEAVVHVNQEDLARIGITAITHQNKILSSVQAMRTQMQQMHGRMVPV

Row | Compound | tyrosine phosphorylation of EphA4-TAP [1] | tyrosine phosphorylation of EphB2-TAP [2] | inhibition of autophosphorylation of TAP-tagged Eph kinases in cells [3] | inhibition of autophosphorylation of TAP-tagged Eph kinases in-vitro [4] | maximal number of non-redundant peptides identified, EphA6 [5]
1 | Cc1ccc(NC(=O)c2ccc(CN3CCN(C)CC3)cc2)cc1Nc1nccc(-c2cccnc2)n1 [Gleevac] | inhibits tyrosine phosphorylation of Eph kinases in a concentration-dependent manner | inhibits tyrosine phosphorylation of Eph kinases in a concentration-dependent manner | potent inhibitors | potent inhibitors | –
2 | NCCCn1cc(C2=C(c3c[nH]c4ccccc34)C(=O)NC2=O)c2ccccc21 [BisIII] | – | – | – | – | 7

From patent publication US20080213250A1, “Use of Eph Receptor Inhibitors for the Treatment of Neurodegenerative Diseases” (priority 2004, published 2008)
